From patent US10414811B2, “Protease-resistant lipidated GLP-1 analogs” (MEDIMMUNE LIMITED, priority 2015, dated 2019) come the findings set out here.

Assay type in all cases: cell-based
For assay [1], the target named is T1, human glucose-dependent insulinotropic peptide receptor (GIPR) (Homo sapiens, UniProt P48546).
T1 construct: expressed in transfected cells
T1 sequence (P48546 22-466): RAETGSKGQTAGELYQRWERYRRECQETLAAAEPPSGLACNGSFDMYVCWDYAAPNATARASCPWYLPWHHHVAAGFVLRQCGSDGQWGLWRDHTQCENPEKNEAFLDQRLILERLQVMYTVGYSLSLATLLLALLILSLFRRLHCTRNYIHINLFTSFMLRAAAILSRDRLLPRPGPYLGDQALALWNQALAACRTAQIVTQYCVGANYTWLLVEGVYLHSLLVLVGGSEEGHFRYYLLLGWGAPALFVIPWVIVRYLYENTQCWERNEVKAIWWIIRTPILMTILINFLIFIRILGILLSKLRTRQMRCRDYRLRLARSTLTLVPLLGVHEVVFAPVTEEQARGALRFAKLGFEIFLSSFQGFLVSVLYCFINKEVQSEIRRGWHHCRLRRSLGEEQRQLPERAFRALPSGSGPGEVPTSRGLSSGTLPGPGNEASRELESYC
Kind of assay: cAMP assay, human GIPR cells. Summed up:
(§1)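 Peptide-stimulated cAMP measured by two-step HTRF after a 30 min room-temperature incubation with receptor-expressing cells (hGLP-1R, hGIPR at 1×10^5 cells/ml; hGCGR at 2×10^5 cells/ml). Duplicate dilutions; EC50 from 4-parameter logistic fit of % Delta F.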
A general note: cAMP levels reflect the balance of adenylyl cyclase and phosphodiesterase activity.

The target of assay [2] is T2, human GLP-1 receptor (GLP-1R) (Homo sapiens, UniProt P43220).
T2 construct: expressed in transfected cells
T2 sequence (P43220 24-463): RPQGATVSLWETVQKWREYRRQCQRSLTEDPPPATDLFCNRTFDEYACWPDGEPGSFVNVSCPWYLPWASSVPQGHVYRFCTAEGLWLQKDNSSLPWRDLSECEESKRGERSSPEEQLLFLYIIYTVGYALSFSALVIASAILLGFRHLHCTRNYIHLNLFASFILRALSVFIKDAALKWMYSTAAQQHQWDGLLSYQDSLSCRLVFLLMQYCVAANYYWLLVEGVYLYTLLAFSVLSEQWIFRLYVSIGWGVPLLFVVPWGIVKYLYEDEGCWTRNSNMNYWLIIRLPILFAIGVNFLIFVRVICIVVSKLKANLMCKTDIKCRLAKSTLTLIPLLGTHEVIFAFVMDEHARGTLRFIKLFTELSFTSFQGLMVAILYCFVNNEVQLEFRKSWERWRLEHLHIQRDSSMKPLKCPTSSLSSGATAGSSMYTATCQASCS
Kind of assay: cAMP assay, human GLP-1R cells. Summed up: as §1

The target of assay [3] is T3, human glucagon receptor (GCGR) (Homo sapiens, UniProt P47871).
T3 construct: expressed in transfected cells
T3 sequence (P47871 26-477): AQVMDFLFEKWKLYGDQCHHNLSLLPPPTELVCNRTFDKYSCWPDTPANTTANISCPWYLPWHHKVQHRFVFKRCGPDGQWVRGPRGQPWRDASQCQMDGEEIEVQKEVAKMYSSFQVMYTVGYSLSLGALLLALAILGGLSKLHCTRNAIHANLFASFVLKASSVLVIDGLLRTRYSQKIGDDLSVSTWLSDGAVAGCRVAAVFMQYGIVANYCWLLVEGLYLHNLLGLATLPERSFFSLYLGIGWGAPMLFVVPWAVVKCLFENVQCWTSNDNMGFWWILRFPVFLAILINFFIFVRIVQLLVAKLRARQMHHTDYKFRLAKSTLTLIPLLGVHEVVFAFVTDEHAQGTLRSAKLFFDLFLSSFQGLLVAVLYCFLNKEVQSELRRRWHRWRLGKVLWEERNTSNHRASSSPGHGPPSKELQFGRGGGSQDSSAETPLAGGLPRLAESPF
Kind of assay: cAMP assay, human GCGR cells. Summed up: as §1

Where [4] appears, read: cAMP assay, first determination (n1), read-out: Primary assay EC50 GIP-R (n1).
Where [5] appears, read: cAMP assay, second determination (n2), read-out: Primary assay EC50 GIP-R (n2).
Where [6] appears, read: cAMP assay, first determination (n1), read-out: Primary assay EC50 GLP-1R n1.
Setting [7] is: cAMP assay, second determination (n2), read-out: Primary assay EC50 GLP-1R n2.
[8] abbreviates: mean of n1 and n2, read-out: Mean pM GLP-1R.
Setting [9] is: cAMP assay, first determination (n1), read-out: Primary assay EC50 Gluc-R (n1).
Where [10] appears, read: cAMP assay, second determination (n2), read-out: Primary assay EC50 Gluc-R (n2).

Where two headings read alike, the source gives them in different places. Numbered stars: 1 amine (or outer) side, 2 acyl side, 3 side chain; on linkers, the order of the positions; unused ones are H or OH. Square brackets hold non-standard residues; d marks the D form. Side chains are listed from the residue outwards. Peptide text beside a SMILES is read from it. * marks the point of attachment. γGlu = O=C(O)[C@H](CCC(=O)[*:2])N[*:1]; Palmitoyl = CCCCCCCCCCCCCCCC(=O)*; αMeF = C[C@](N)(Cc1ccccc1)C(=O)O; αMeK = C[C@](N)(CCCCN)C(=O)O; Lauroyl = CCCCCCCCCCCC(=O)*; αMeS = C[C@](N)(CO)C(=O)O; AEEA = NCCOCCOCC(=O)O; Aib = CC(C)(N)C(=O)O Bounds are passed on as bounds.

`CCCCCCCCCCCCCCCC(=O)N[C@@H](CCC(=O)NCCCC[C@H](NC(=O)[C@@H](NC(=O)[C@](C)(Cc1ccccc1)NC(=O)[C@H](C)NC(=O)[C@@H](NC(=O)[C@](C)(Cc1ccccc1)NC(=O)[C@H](CCC(=O)O)NC(=O)[C@](C)(CCCCN)NC(=O)[C@H](C)NC(=O)[C@H](C)NC(=O)[C@H](CCC(=O)O)NC(=O)CNC(=O)[C@H](CCC(=O)O)NC(=O)[C@H](CC(C)C)NC(=O)[C@](C)(Cc1ccccc1)NC(=O)[C@H](CO)NC(=O)[C@](C)(CO)NC(=O)[C@@H](NC(=O)[C@H](CC(=O)O)NC(=O)[C@H](CO)NC(=O)[C@@H](NC(=O)[C@](C)(Cc1ccccc1)NC(=O)[C@H](CO)NC(=O)CNC(=O)[C@H](CCC(=O)O)NC(=O)C(C)(C)NC(=O)[C@@H](N)Cc1c[nH]cn1)[C@@H](C)O)C(C)C)[C@@H](C)CC)C(C)C)C(=O)N[C@@](C)(CCCCN)C(=O)NCC(=O)NCC(N)=O)C(=O)O` [compound 73] (H-H[Aib]EGS[αMeF]TSDV[αMeS]S[αMeF]LEGEAA[αMeK]E[αMeF]IA[αMeF]VK([γGlu-Palmitoyl])[αMeK]GG-NH2): the EC50 was at least 28 nM in assay [1] (setting [4]); at least 28 nM in assay [1] (setting [5]); 130 pM in assay [2] (setting [6]); 160 pM in assay [2] (setting [7]); 146 pM in assay [2] (setting [8]); at least 28 nM in assay [3] (setting [9]). For the same compound, the EC50 in assay [3] (setting [10]) was at least 28 nM.
Consider `CCCCCCCCCCCC(=O)N[C@@H](CCC(=O)NCCOCCOCC(=O)NCCOCCOCC(=O)NCCCC[C@H](NC(=O)[C@H](CCC(=O)O)NC(=O)[C@H](CC(C)C)NC(=O)[C@H](Cc1ccc(O)cc1)NC(=O)[C@H](CO)NC(=O)[C@H](CO)NC(=O)[C@H](CCCCNC(=O)COCCOCCNC(=O)COCCOCCNC(=O)CC[C@H](NC(=O)CCCCCCCCCCC)C(=O)O)NC(=O)[C@H](CC(=O)O)NC(=O)[C@H](CO)NC(=O)[C@@H](NC(=O)[C@](C)(Cc1ccccc1)NC(=O)[C@H](CO)NC(=O)CNC(=O)[C@H](CCC(=O)O)NC(=O)C(C)(C)NC(=O)[C@@H](N)Cc1c[nH]cn1)[C@@H](C)O)C(=O)N[C@@H](CCC(=O)O)C(=O)N[C@@H](C)C(=O)N[C@@H](C)C(=O)N[C@@](C)(CCCCN)C(=O)N[C@@H](CCC(=O)O)C(=O)N[C@@H](Cc1ccccc1)C(=O)N[C@H](C(=O)N[C@@H](C)C(=O)N[C@@H](Cc1ccccc1)C(=O)N[C@@H](CCCCNC(=O)COCCOCCNC(=O)COCCOCCNC(=O)CC[C@H](NC(=O)CCCCCCCCCCC)C(=O)O)C(=O)N[C@H](C(=O)N[C@@H](CCC(=O)O)C(=O)NCC(=O)NCC(N)=O)C(C)C)[C@@H](C)CC)C(=O)O` [compound 471] (H-H[Aib]EGS[αMeF]TSDK([AEEA-AEEA-γGlu-Lauroyl])SSYLEK([AEEA-AEEA-γGlu-Lauroyl])EAA[αMeK]EFIAFK([AEEA-AEEA-γGlu-Lauroyl])VEGG-NH2), for which the EC50 in assay [1] (tris-lipidated peptides, first replicate, read-out: Primary assay EC50 GIP-R (n1)) is at least 19.6 nM; in assay [2] (tris-lipidated peptides, mean of n1 and n2, read-out: Primary assay EC50 Mean pM GLP-1R), 374 pM; in assay [2] (tris-lipidated peptides, replicate n1, read-out: Primary assay EC50 GLP-1R n1), 277 pM; in assay [2] (tris-lipidated peptides, replicate n2, read-out: Primary assay EC50 GLP-1R n2) it was 470 pM; in assay [3] (tris-lipidated peptides, first replicate, read-out: Primary assay EC50 Gluc-R (n1)), at least 19.6 nM.
Regarding `CC[C@H](C)[C@H](NC(=O)[C@](C)(Cc1ccccc1)NC(=O)[C@H](CCC(=O)O)NC(=O)[C@](C)(CCCCN)NC(=O)[C@H](C)NC(=O)[C@H](C)NC(=O)[C@H](CCC(=O)O)NC(=O)CNC(=O)[C@H](CCC(=O)O)NC(=O)[C@H](CC(C)C)NC(=O)[C@](C)(Cc1ccccc1)NC(=O)[C@H](CO)NC(=O)[C@H](CO)NC(=O)[C@@H](NC(=O)[C@H](CCC(=O)O)NC(=O)[C@H](CO)NC(=O)[C@@H](NC(=O)[C@](C)(Cc1ccccc1)NC(=O)[C@H](CO)NC(=O)CNC(=O)[C@H](CCC(=O)O)NC(=O)C(C)(C)NC(=O)[C@@H](N)Cc1c[nH]cn1)[C@@H](C)O)C(C)C)C(=O)N[C@@H](C)C(=O)N[C@@](C)(Cc1ccccc1)C(=O)N[C@H](C(=O)N[C@H](C(=O)N[C@@](C)(CCCCN)C(=O)NCC(=O)NCC(N)=O)C(C)C)C(C)C` [compound 7] (H-H[Aib]EGS[αMeF]TSEVSS[αMeF]LEGEAA[αMeK]E[αMeF]IA[αMeF]VV[αMeK]GG-NH2), the EC50 in assay [1] (setting [4]) is at least 100 nM; in assay [1] (setting [5]), at least 100 nM; in assay [2] (setting [6]), 350 pM; in assay [2] (setting [7]), 430 pM; in assay [2] (setting [8]), 389 pM; in assay [3] (setting [9]), at least 100 nM. For the same compound, the EC50 in assay [3] (setting [10]) was at least 100 nM.
Consider `CCCCCCCCCCCCCCCCCC(=O)NCCCCCC(=O)NCCCC[C@H](NC(=O)[C@@H](NC(=O)[C@@H](NC(=O)[C@](C)(Cc1ccccc1)NC(=O)[C@H](C)NC(=O)[C@@H](NC(=O)[C@](C)(Cc1ccccc1)NC(=O)[C@H](CCC(=O)O)NC(=O)[C@](C)(CCCCN)NC(=O)[C@H](C)NC(=O)[C@H](C)NC(=O)[C@H](CCC(=O)O)NC(=O)CNC(=O)[C@H](CCC(=O)O)NC(=O)[C@H](CC(C)C)NC(=O)[C@](C)(Cc1ccccc1)NC(=O)[C@H](CO)NC(=O)[C@](C)(CO)NC(=O)[C@@H](NC(=O)[C@H](CC(=O)O)NC(=O)[C@H](CO)NC(=O)[C@@H](NC(=O)[C@](C)(Cc1ccccc1)NC(=O)[C@H](CO)NC(=O)CNC(=O)[C@H](CCC(=O)O)NC(=O)C(C)(C)NC(=O)[C@@H](N)Cc1c[nH]cn1)[C@@H](C)O)C(C)C)[C@@H](C)CC)C(C)C)C(C)C)C(=O)NCC(=O)NCC(N)=O` [compound 185], for which the EC50 in assay [1] (setting [4]) was at least 28 nM; in assay [1] (setting [5]), at least 28 nM; in assay [2] (setting [6]), 380 pM; in assay [2] (setting [7]), 120 pM; in assay [2] (setting [8]) it was 251 pM; in assay [3] (setting [9]) it was at least 28 nM. In addition, in assay [3] (setting [10]), the EC50 was at least 28 nM.
Regarding `CCCCCCCCCCCCCCCC(=O)N[C@@H](CCC(=O)NCCCC[C@H](NC(=O)CNC(=O)[C@H](CCC(=O)O)NC(=O)C(C)(C)NC(=O)[C@@H](N)Cc1c[nH]cn1)C(=O)N[C@@](C)(Cc1ccccc1)C(=O)N[C@H](C(=O)N[C@@H](CO)C(=O)N[C@@H](CC(=O)O)C(=O)N[C@H](C(=O)N[C@@](C)(CO)C(=O)N[C@@H](CO)C(=O)N[C@@](C)(Cc1ccccc1)C(=O)N[C@@H](CC(C)C)C(=O)N[C@@H](CCC(=O)O)C(=O)NCC(=O)N[C@@H](CCC(=O)O)C(=O)N[C@@H](C)C(=O)N[C@@H](C)C(=O)N[C@@](C)(CCCCN)C(=O)N[C@@H](CCC(=O)O)C(=O)N[C@@](C)(Cc1ccccc1)C(=O)N[C@H](C(=O)N[C@@H](C)C(=O)N[C@@](C)(Cc1ccccc1)C(=O)N[C@H](C(=O)N[C@H](C(=O)N[C@@](C)(CCCCN)C(=O)NCC(=O)NCC(N)=O)C(C)C)C(C)C)[C@@H](C)CC)C(C)C)[C@@H](C)O)C(=O)O` [compound 95] (H-H[Aib]EGK([γGlu-Palmitoyl])[αMeF]TSDV[αMeS]S[αMeF]LEGEAA[αMeK]E[αMeF]IA[αMeF]VV[αMeK]GG-NH2; N-terminus assumed), the EC50 in assay [1] (setting [4]) is at least 28 nM; in assay [1] (setting [5]), at least 28 nM; in assay [2] (setting [6]), 260 pM; in assay [2] (setting [7]) it was 190 pM; in assay [2] (setting [8]) it was 224 pM; in assay [3] (setting [9]), at least 28 nM. In assay [3] (setting [10]), the EC50 was at least 28 nM.
